For 14 molecules, IC50 results are on record in US20240174662A1, “SMALL MOLECULE INHIBITORS OF SALT INDUCIBLE KINASES” (Janssen Biotech, Inc., priority 2021, published 2024).

One may read the IC50 as the concentration needed to halve the response being measured. Lower therefore signals higher potency.

In assay [1] the target is T1, SIK2 (Homo sapiens (Human), UniProt Q9H0K1). Description: SIK2 Enzymatic Assay Version 2 (High ATP). The conditions noted are these: 3 mM ATP and 200 μM HDAC5tide final, ADP-Glo Max luminescence. The format is biochemical. The procedure, abridged: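 Run at room temperature; SIK2 enzyme at 6 nM (2× final) preincubated with compound 30 min before reaction. ADP formation detected by ADP-Glo Max (2 h reagent, 1 h detection) with luminescence read-out.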
A general note: In ADP-Glo the light output rises with the ADP produced.

For assay [2], the target named is T1, SIK2. Description: SIK2 Enzymatic Assay Version 1 (ADP Glo). The format is biochemical. The conditions noted are these: 80 μM ATP and 70 μM HDAC5tide final, ADPGlo luminescence. The procedure: All steps were performed at room temperature. Compounds were pre-plated onto an assay plate using an Echo acoustic dispenser (Labcyte, E550 or E555) at 20 nL per well. Enzyme prepared in Assay Buffer at 0.6 nM (2× final concentration) was added at 2 μL per well using the Multidrop Combi (Thermo Fisher-used for all additions in this assay) to the assay plate, spun for 1 min at 800-850 rpm (Allegra 6KR Beckman Coulter centrifuge), and incubated with compound for 30 minutes. Assay Buffer containing 160 μM ATP and 140 μM HDAC5tide (2× of final concentration for each substrate) was added at 2 μL per well to the assay plate and then spun as above and incubated for 4 hours.
One column of wells was dedicated to a no-peptide negative control (containing only ATP). ADPGlo Reagent (prepared and aliquoted as per manufacturer instructions) was then added at 2 μL per well, spun and incubated for 40 min. ADPGlo Detection (prepared and aliquoted as per manufacturer instructions) was added at 2 μL per well to the assay plate, which was spun and incubated for at least 30 min. The plate was then read on the Pherastar (BMG Labtech) using a luminescence read. Gain was set by the 0.1 mM concentration of ADP wells in the ADP/ATP standard curve plate generated as per manufacturer instructions.

T1 sequence (Q9H0K1 whole entry, species assumed): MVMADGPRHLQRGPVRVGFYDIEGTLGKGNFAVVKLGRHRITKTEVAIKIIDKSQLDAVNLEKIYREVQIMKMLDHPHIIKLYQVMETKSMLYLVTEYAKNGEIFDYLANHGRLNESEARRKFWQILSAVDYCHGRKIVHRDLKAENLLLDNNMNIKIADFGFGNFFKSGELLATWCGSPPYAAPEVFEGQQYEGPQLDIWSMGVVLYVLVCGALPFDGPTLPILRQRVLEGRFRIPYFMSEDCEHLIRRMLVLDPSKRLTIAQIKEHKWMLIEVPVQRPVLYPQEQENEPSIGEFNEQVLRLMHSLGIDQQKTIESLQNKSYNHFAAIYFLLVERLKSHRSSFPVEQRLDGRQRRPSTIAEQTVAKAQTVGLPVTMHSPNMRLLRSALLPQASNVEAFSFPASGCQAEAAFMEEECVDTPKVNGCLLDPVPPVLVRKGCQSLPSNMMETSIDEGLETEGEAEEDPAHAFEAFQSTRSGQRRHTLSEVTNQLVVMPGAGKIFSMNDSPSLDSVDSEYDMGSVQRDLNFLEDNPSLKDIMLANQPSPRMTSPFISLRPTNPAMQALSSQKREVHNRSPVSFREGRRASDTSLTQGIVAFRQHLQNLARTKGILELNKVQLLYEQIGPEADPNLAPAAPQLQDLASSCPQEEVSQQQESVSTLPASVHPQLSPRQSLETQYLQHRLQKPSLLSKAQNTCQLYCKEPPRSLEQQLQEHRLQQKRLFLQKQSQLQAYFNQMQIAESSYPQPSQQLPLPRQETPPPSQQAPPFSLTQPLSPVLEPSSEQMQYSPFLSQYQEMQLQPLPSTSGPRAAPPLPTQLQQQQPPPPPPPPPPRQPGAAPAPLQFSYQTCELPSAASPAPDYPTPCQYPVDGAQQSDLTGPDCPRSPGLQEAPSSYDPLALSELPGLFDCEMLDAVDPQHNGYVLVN

Regarding `CN1CC[C@@H](Oc2cnn(C)c2-c2ccn3nc(NC(=O)C4CC4)cc3c2)C1` [Example 488, N-[5-[2-methyl-4-[(3R)-1-methylpyrrolidin-3-yl]oxy-pyrazol-3-yl]pyrazolo[1,5-a]pyridin-2-yl]cyclopropanecarboxamide], the IC50 in assay [1] was determined as 424 nM; in assay [2], 6.45 nM.

As to `CN1CCO[C@H](COc2cnn(C)c2-c2ccn3nc(NC(=O)C4CC4)cc3c2)C1` [Example 487], the half-inhibitory concentration (IC50) in assay [1] was found to be 334 nM; in assay [2] it was 12.9 nM.

With `Cc1oncc1-c1ccn2nc(NC(=O)C3CC3)cc2c1` [Example 486, N-[5-(5-methylisoxazol-4-yl)pyrazolo[1,5-a]pyridin-2-yl]cyclopropanecarboxamide], the IC50 in assay [2] was found to be 39.7 nM.

In assay [1], `CO[C@H]1CNC[C@H]1Oc1cnn(C(F)F)c1-c1ccn2nc(Nc3cc(C)nc(C)n3)cc2c1` [Example 96, 5-[2-(difluoromethyl)-4-[(3R,4S)-4-methoxypyrrolidin-3-yl]oxy-pyrazol-3-yl]-N-(2,6-dimethylpyrimidin-4-yl)pyrazolo[1,5-a]pyridin-2-amine] displayed an IC50 of 6.8 nM. That is a single-digit nanomolar value.

For the molecule `C[C@H]1CNC[C@H]1Oc1cnn(C)c1-c1ccn2nc(NC(=O)C3CC3)cc2c1` (single isomer, unassigned) [Example 413, (3*S,4*S)—N-[5-[2-methyl-4-(4-methylpyrrolidin-3-yl)oxy-pyrazol-3-yl]pyrazolo[1,5-a]pyridin-2-yl]cyclopropanecarboxamide], the IC50 in assay [1] worked out at 140 nM.

As to `CN1CC[C@@H]1COc1cnn(C)c1-c1ccn2nc(N)cc2c1` [Example 503, 5-[2-methyl-4-[[(2R)-1-methylazetidin-2-yl]methoxy]pyrazol-3-yl]pyrazolo[1,5-a]pyridin-2-amine], in assay [1], the IC50 was 442 nM. Compared with the last molecule, the IC50 is about 3.2-fold higher.

Take `Cn1ncc(OC[C@H]2CCCN2CCF)c1-c1ccn2nc(NC(=O)C3CC3)cc2c1` [Example 350, N-[5-[4-[[(2R)-1-(2-fluoroethyl)pyrrolidin-2-yl]methoxy]-2-methyl-pyrazol-3-yl]pyrazolo[1,5-a]pyridin-2-yl]cyclopropanecarboxamide]: the IC50 in assay [1] is 66.2 nM. Compared with the last molecule, the IC50 is about 6.7-fold lower.

For `Cc1cc(Nc2cc3cc(-c4c(OC[C@H]5CCN5C)cnn4C)ccn3n2)nc(C(F)F)n1` [Example 102, N-[2-(difluoromethyl)-6-methyl-pyrimidin-4-yl]-5-[2-methyl-4-[[(2R)-1-methylazetidin-2-yl]methoxy]pyrazol-3-yl]pyrazolo[1,5-a]pyridin-2-amine], the IC50 in assay [1] was below 0.847 nM.

`CN1CC[C@@H]1COc1cnn(C)c1-c1ccn2nc(Nc3ccc4c(n3)CCOC4)cc2c1` [Example 114, N-[5-[2-methyl-4-[[(2R)-1-methylazetidin-2-yl]methoxy]pyrazol-3-yl]pyrazolo[1,5-a]pyridin-2-yl]-7,8-dihydro-5H-pyrano[4,3-b]pyridin-2-amine] had an IC50 in assay [1] of 1.1 nM.

For the molecule `CO[C@@H]1CNC[C@H]1COc1cnn(C)c1-c1ccn2nc(NC(=O)C3CC3)cc2c1` [Example 422, N-[5-[4-[[(3S,4S)-4-methoxypyrrolidin-3-yl]methoxy]-2-methyl-pyrazol-3-yl]pyrazolo[1,5-a]pyridin-2-yl]cyclopropanecarboxamide], in assay [1], the IC50 came out at 96.9 nM.

`Cc1onc(O[C@H]2CCN(C)C2)c1-c1ccn2nc(NC(=O)C3CC3)cc2c1` [Example 382, N-[5-[5-methyl-3-[(3S)-1-methylpyrrolidin-3-yl]oxy-isoxazol-4-yl]pyrazolo[1,5-a]pyridin-2-yl]cyclopropanecarboxamide] registered an IC50 in assay [1] of 96.1 nM. The IC50 values of the last two molecules are within 1.5-fold of each other.

For the molecule `Cn1ncc(COC2(C(F)(F)F)CNC2)c1-c1ccn2nc(NC(=O)C3CC3)cc2c1` [Example 186, N-[5-[2-methyl-4-[[3-(trifluoromethyl)azetidin-3-yl]oxymethyl]pyrazol-3-yl]pyrazolo[1,5-a]pyridin-2-yl]cyclopropanecarboxamide], the IC50 in assay [1] was found to be 7.3 nM. This IC50 lies about 13-fold lower than the previous one.

In turn, `Cc1nc(C)c(C)c(Nc2cc3cc(-c4c(OC[C@H]5CCN5C)cnn4C)ccn3n2)n1` [Example 57, 5-[2-methyl-4-[[(2R)-1-methylazetidin-2-yl]methoxy]pyrazol-3-yl]-N-(2,5,6-trimethylpyrimidin-4-yl)pyrazolo[1,5-a]pyridin-2-amine] displayed an IC50 in assay [1] of 471 nM.

Regarding `CCN1CC[C@@H]1COc1cnn(C)c1-c1ccn2nc(Nc3ccnc(OC)n3)cc2c1` [Example 163, 5-[4-[[(2R)-1-ethylazetidin-2-yl]methoxy]-2-methyl-pyrazol-3-yl]-N-(2-methoxypyrimidin-4-yl)pyrazolo[1,5-a]pyridin-2-amine], in assay [1], the IC50 came to 2.2 nM.
